Measurements: US20220184077A1, “ANTI-VIRAL ACTIVITY OF VPS34 INHIBITORS” (Deciphera Pharmaceuticals, LLC, priority 2020, published 2022)
Like-named read-outs stand apart in the source and are kept apart here.

Legend:
[1] = in vitro; format: cell-based; settings: African green monkey
Method: Compound cytotoxicity (CC50) is assessed in a BSL-2 counter screen as follows: Host cells in media are added in 25 μl aliquots (4000 cells/well) to each well of assay ready plates prepared with test compounds as above. […] DMSO is maintained at a constant concentration for all wells (0.3%) as dictated by the dilution factor of stock test compound concentrations. After incubating plates at 37° C./5% CO2 and 90% humidity for 72 hours, 30 μl Cell Titer-Glo (Promega) is added to each well. Luminescence is read using a BMG PHERAstar plate reader following incubation at room temperature for 10 minutes to measure cell viability.

[2] = in vitro; settings: human
[3] = test system: coronavirus USA_WA1/2020 SARS CoV-2; experiment: SARS CoV-2 CPE assay for antiviral activity (Vero E6 host cells, Cell Titer-Glo); format: cell-based; settings: read-out: IC50 for inhibition of SARS CoV-2 mediated cell killing
[4] = test system: SARS-CoV-2; experiment: microbe, parasite or virus in culture; format: cell-based; settings: Severe acute respiratory syndrome coronavirus 2, A549-ACE2, 48 h; read-out: IC50 for inhibition of SARS CoV-2 mediated cell killing
[5] = Vero C1008, Vero E6 cells, 72 hours, 10-point dose response, high concentration 15 μM

Row | Compound | CC50 at 72 h [1] [µM] | CC50 [2] [µM] | IC50 [3, 5] [µM] | IC50 [4] [µM] | IC50 ([3]; Vero C1008, 72 h) [µM]
1 | Cc1nccc(Nc2cc(-c3cc(-c4cccnc4C(F)(F)F)[nH]c(=O)c3)ccn2)n1 [Compound 1] | > 30 | 2 | 0.12 | 0.059 | –
2 | Cc1nccc(Nc2cc(-c3cc(-c4ccccc4Cl)[nH]c(=O)c3)ccn2)n1 [Compound 2] | 0.482 | 0.159 | < 0.02 | < 0.02 | –
3 | Cc1nccc(Nc2cc(-c3cc(-c4ccccc4C(F)(F)F)n(C)c(=O)c3)ccn2)n1 [Compound 3] | 1960 | 1370 | – | < 0.02 | 0.036
4 | CCS(=O)(=O)N1CCN(c2cc(-c3ccnc(Nc4ccnc(C)n4)c3)cc(=O)[nH]2)C(C(F)(F)F)C1 (stereo not shown) [Compound 4] | 2760 | 0.557 | – | 0.035 | 0.109
